# Laboratory results: EP4803513A1, “SUBSTITUTED QUINAZOLINE COMPOUND, PREPARATION METHOD THEREFOR, PHARMACEUTICAL COMBINATION THEREOF, AND USE THEREOF” (Hongyun Biotech Co., Ltd., priority 2023, dated 2025)
# Tested on: BRK-BaF3 cells
# Assay: Cell antiproliferative activity assay (CCK-8), BRK-BaF3
# Format: cell-based
# Details: 72 h, CCK-8, 3 days incubation
# Description: (§1) The activity of compounds against BRK kinase can be evaluated by their inhibition of the growth of the BRK kinase-stably transfected BaF3 cell line (BRK-BaF3) and wild-type BaF3 cells (WT-BaF3). […] The larger the ratio of the half-maximal growth inhibitory concentration (IC50) of a compound between WT-BaF3 and BRK-BaF3 cells, the better the selectivity of the compound.
# (§2) BRK-BaF3, WT-BaF3, WEHI cell line, and breast cancer cell line T47D were cultured using RPMI 1640 Basal medium or DMEM (Dulbecco's Modified Eagle Medium) (Shanghai Peiyuan Biotechnology, L220KJ), supplemented with 10% FBS (Gibco, REF 10099-141C) and 1% P/S (Shanghai Peiyuan Biotechnology, S110JV), in an incubator (Thermo 3020) at 37°C with 5% CO2. Cell viability was above 95%. Cells were passaged at a 3:1 ratio every 3-4 days. For WT-BaF3 cells, WEHI cells were first cultured, and their culture supernatant was filtered through a 0.22 µm filter. This supernatant was added at 10% to the regular culture medium to supplement IL-3 required for WT-BaF3 cell proliferation, which served as the culture medium for WT-BaF3. For testing, cells were first collected and counted, then prepared into a cell suspension at 100,000 cells/mL and plated at 100 µL per well. Drug concentrations started from 10 µM and were serially diluted 3:1. After incubation for 3 days, 20 µL of CCK-8 detection reagent (Targetmol C005) was added to each well. After incubation for 2-4 hours, OD450 was measured using a microplate reader (Varioskan LUX, Thermo Scientific). After subtracting the blank background, the curve was fitted and the IC50 was calculated using XLfit software.
row,SMILES,IC50
1,Cc1nn(CCO)cc1Nc1ncc2cc(-c3ccccn3)cc(C(C)C)c2n1 [I-1],≤ 20 nM
2,Cc1nn(CCO)cc1Nc1ncc2cc(-c3ncccc3F)cc(C(C)C)c2n1 [I-2],≤ 20 nM
3,Cc1cccnc1-c1cc(C(C)C)c2nc(Nc3cn(CCO)nc3C)ncc2c1 [I-3],≤ 20 nM
4,COc1cccnc1-c1cc(C(C)C)c2nc(Nc3cn(CCO)nc3C)ncc2c1 [I-4],≤ 20 nM
5,Cc1nn(CCO)cc1Nc1ncc2cc(-c3ccccn3)cc(C(F)(F)F)c2n1 [I-9],≤ 20 nM
6,Cc1nn(CCO)cc1Nc1ncc2cc(-c3ccncc3)cc(C(C)C)c2n1 [I-10],20 to 100 nM
7,Cc1nn(CCO)cc1Nc1ncc2cc(-c3ccncc3F)cc(C(C)C)c2n1 [I-11],≤ 20 nM
8,Cc1cnccc1-c1cc(C(C)C)c2nc(Nc3cn(CCO)nc3C)ncc2c1 [I-12],≤ 20 nM
9,COc1cnccc1-c1cc(C(C)C)c2nc(Nc3cn(CCO)nc3C)ncc2c1 [I-13],≤ 20 nM
10,Cc1cnc(F)cc1-c1cc(C(C)C)c2nc(Nc3cn(CCO)nc3C)ncc2c1 [I-17],≤ 20 nM
11,COc1ncccc1-c1cc(C(C)C)c2nc(Nc3cn(CCO)nc3C)ncc2c1 [I-25],≤ 20 nM
12,Cc1nn(CCO)cc1Nc1ncc2cc(-c3cccnc3C#N)cc(C(C)C)c2n1 [I-26],≤ 20 nM
13,Cc1nn(CCO)cc1Nc1ncc2cc(-c3cccnc3C3CC3)cc(C(C)C)c2n1 [I-28],20 to 100 nM
14,Cc1nn(CCO)cc1Nc1ncc2cc(-c3cnccc3F)cc(C(C)C)c2n1 [I-31],≤ 20 nM
15,COc1ccncc1-c1cc(C(C)C)c2nc(Nc3cn(CCO)nc3C)ncc2c1 [I-33],≤ 20 nM
16,Cc1nn(CCO)cc1Nc1ncc2cc(-c3cnccc3C#N)cc(C(C)C)c2n1 [I-34],≤ 20 nM
17,Cc1nn(CCO)cc1Nc1ncc2cc(-c3cc(F)cnc3F)cc(C(C)C)c2n1 [I-40],≤ 20 nM
18,Cc1nn(CCO)cc1Nc1ncc2cc(-c3cc(C#N)cnc3C)cc(C(C)C)c2n1 [I-42],≤ 20 nM
19,Cc1nn(CCO)cc1Nc1ncc2cc(-c3c(Cl)ccnc3Cl)cc(C(C)C)c2n1 [I-44],≤ 20 nM
20,Cc1nn(CCO)cc1Nc1ncc2cc(-c3c(F)ccnc3Cl)cc(C(C)C)c2n1 [I-45],≤ 20 nM
21,Cc1ccnc(C)c1-c1cc(C(C)C)c2nc(Nc3cn(CCO)nc3C)ncc2c1 [I-47],≤ 20 nM
22,Cc1nn(CCO)cc1Nc1ncc2cc(-c3c(Cl)ccnc3N)cc(C(C)C)c2n1 [I-49],≤ 20 nM
23,Cc1ccnc(N)c1-c1cc(C(C)C)c2nc(Nc3cn(CCO)nc3C)ncc2c1 [I-50],≤ 20 nM
24,Cc1ncc(F)cc1-c1cc(C(C)C)c2nc(Nc3cnn(CCO)c3)ncc2c1 [I-52],≤ 20 nM

row,SMILES,IC50
1,Cc1ncccc1-c1cc(C(C)C)c2nc(Nc3cnn(CCO)c3C)ncc2c1 [I-66],20 to 100 nM
2,Cc1nn(CCO)cc1Nc1ncc2cc(-c3cccnc3)cc(C3CC3)c2n1 [I-72],≤ 20 nM
3,Cc1nn(CCO)cc1Nc1ncc2cc(-c3cc(F)cnc3C)cc(C3CC3)c2n1 [I-74],≤ 20 nM
4,Cc1nn(CCO)cc1Nc1ncc2cc(-c3cccnc3)cc(C(F)(F)F)c2n1 [I-75],≤ 20 nM
5,Cc1nn(CCO)cc1Nc1ncc2cc(-c3cccnc3C)cc(C(F)(F)F)c2n1 [I-76],≤ 20 nM
6,Cc1ccnc(C)c1-c1cc(C(F)(F)F)c2nc(Nc3cn(CCO)nc3C)ncc2c1 [I-77],≤ 20 nM
7,Cc1nn(CCO)cc1Nc1ncc2cc(-c3nccnc3F)cc(C(C)C)c2n1 [I-79],≤ 20 nM
8,Cc1c[nH]c(=O)cc1-c1cc(C(C)C)c2nc(Nc3cnn(CCN4CCCC4)c3C)ncc2c1 [III-65],≤ 20 nM
9,Cc1c[nH]c(=O)cc1-c1cc(C(C)C)c2nc(Nc3cn(CC(=O)NCCF)nc3C)ncc2c1 [III-70],20 to 100 nM
10,Cc1c[nH]c(=O)cc1-c1cc(C(C)C)c2nc(Nc3cn(CC(=O)NCC(F)F)nc3C)ncc2c1 [III-71],20 to 100 nM
11,Cc1c[nH]c(=O)cc1-c1cc(C(C)C)c2nc(Nc3cn(CC(=O)NC4CCC4)nc3C)ncc2c1 [III-72],20 to 100 nM
12,Cc1c[nH]c(=O)cc1-c1cc(C(C)C)c2nc(Nc3cn(CC(=O)NC4CC4)nc3C)ncc2c1 [III-73],20 to 100 nM
13,Cc1c[nH]c(=O)cc1-c1cc(C(C)C)c2nc(Nc3cn(CC(=O)N(C)C(C)C)nc3C)ncc2c1 [III-74],20 to 100 nM
14,C#CCN(C)C(=O)Cn1cc(Nc2ncc3cc(-c4cc(=O)[nH]cc4C)cc(C(C)C)c3n2)c(C)n1 [III-76],20 to 100 nM
15,Cc1c[nH]c(=O)cc1-c1cc(C2CC2)c2nc(Nc3cn(C)nc3C)ncc2c1 [III-80],≤ 20 nM
16,Cc1c[nH]c(=O)cc1-c1cc(C2CC2)c2nc(Nc3cnn(C)c3C)ncc2c1 [III-81],≤ 20 nM
17,Cc1c[nH]c(=O)cc1-c1cc(C2CC2)c2nc(Nc3cn(C4COC4)nc3C)ncc2c1 [III-82],≤ 20 nM
18,CCc1cc(-c2cc(=O)[nH]cc2C)cc2cnc(Nc3cn(C)nc3C)nc12 [III-84],20 to 100 nM
19,Cc1ccc2[nH]ncc2c1-c1cc(C(C)C)c2nc(Nc3cn(C)nc3C)ncc2c1 [III-89],≤ 20 nM
20,Cc1nccnc1-c1cc(C(C)C)c2nc(Nc3cnn(C)c3C)ncc2c1 [III-100],≤ 20 nM
21,Cc1cccnc1-c1cc(C(C)C)c2nc(Nc3cn(C)nc3C)ncc2c1 [III-119],≤ 20 nM
22,Cc1nn(C)cc1Nc1ncc2cc(-c3cccnc3C(F)F)cc(C(C)C)c2n1 [III-123],≤ 20 nM
23,Cc1ccncc1-c1cc(C(C)C)c2nc(Nc3cn(C4CCN(C)CC4)nc3C)ncc2c1 [III-129],≤ 20 nM
24,Cc1ccc(C#N)cc1-c1cc(C(C)C)c2nc(Nc3cn(C4CCN(C)CC4)nc3C)ncc2c1 [III-131],≤ 20 nM

# Tested on: WT-BaF3 cells
# Assay: Cell antiproliferative activity assay (CCK-8), WT-BaF3 (broad-spectrum cytotoxicity)
# Format: cell-based
# Details: 72 h; WT-BaF3 cells (IL-3 supplemented), CCK-8, 3 days incubation
# Description: as §1, §2
row,SMILES,IC50
1,Cc1nn(CCO)cc1Nc1ncc2cc(-c3ccccn3)cc(C(C)C)c2n1 [I-1],500 to 2500 nM
2,Cc1nn(CCO)cc1Nc1ncc2cc(-c3ncccc3F)cc(C(C)C)c2n1 [I-2],> 2500 nM
3,Cc1cccnc1-c1cc(C(C)C)c2nc(Nc3cn(CCO)nc3C)ncc2c1 [I-3],> 2500 nM
4,COc1cccnc1-c1cc(C(C)C)c2nc(Nc3cn(CCO)nc3C)ncc2c1 [I-4],> 2500 nM
5,Cc1nn(CCO)cc1Nc1ncc2cc(-c3ccccn3)cc(C(F)(F)F)c2n1 [I-9],> 2500 nM
6,Cc1nn(CCO)cc1Nc1ncc2cc(-c3ccncc3)cc(C(C)C)c2n1 [I-10],500 to 2500 nM
7,Cc1nn(CCO)cc1Nc1ncc2cc(-c3ccncc3F)cc(C(C)C)c2n1 [I-11],500 to 2500 nM
8,Cc1cnccc1-c1cc(C(C)C)c2nc(Nc3cn(CCO)nc3C)ncc2c1 [I-12],500 to 2500 nM
9,COc1cnccc1-c1cc(C(C)C)c2nc(Nc3cn(CCO)nc3C)ncc2c1 [I-13],> 2500 nM
10,Cc1cnc(F)cc1-c1cc(C(C)C)c2nc(Nc3cn(CCO)nc3C)ncc2c1 [I-17],500 to 2500 nM
11,COc1ncccc1-c1cc(C(C)C)c2nc(Nc3cn(CCO)nc3C)ncc2c1 [I-25],> 2500 nM
12,Cc1nn(CCO)cc1Nc1ncc2cc(-c3cccnc3C#N)cc(C(C)C)c2n1 [I-26],> 2500 nM
13,Cc1nn(CCO)cc1Nc1ncc2cc(-c3cccnc3C3CC3)cc(C(C)C)c2n1 [I-28],500 to 2500 nM
14,Cc1nn(CCO)cc1Nc1ncc2cc(-c3cnccc3F)cc(C(C)C)c2n1 [I-31],> 2500 nM
15,COc1ccncc1-c1cc(C(C)C)c2nc(Nc3cn(CCO)nc3C)ncc2c1 [I-33],> 2500 nM
16,Cc1nn(CCO)cc1Nc1ncc2cc(-c3cnccc3C#N)cc(C(C)C)c2n1 [I-34],> 2500 nM

row,SMILES,IC50
1,Cc1nn(CCO)cc1Nc1ncc2cc(-c3cc(F)cnc3F)cc(C(C)C)c2n1 [I-40],> 2500 nM
2,Cc1nn(CCO)cc1Nc1ncc2cc(-c3cc(C#N)cnc3C)cc(C(C)C)c2n1 [I-42],> 2500 nM
3,Cc1nn(CCO)cc1Nc1ncc2cc(-c3c(Cl)ccnc3Cl)cc(C(C)C)c2n1 [I-44],500 to 2500 nM
4,Cc1nn(CCO)cc1Nc1ncc2cc(-c3c(F)ccnc3Cl)cc(C(C)C)c2n1 [I-45],> 2500 nM
5,Cc1ccnc(C)c1-c1cc(C(C)C)c2nc(Nc3cn(CCO)nc3C)ncc2c1 [I-47],500 to 2500 nM
6,Cc1nn(CCO)cc1Nc1ncc2cc(-c3c(Cl)ccnc3N)cc(C(C)C)c2n1 [I-49],> 2500 nM
7,Cc1ccnc(N)c1-c1cc(C(C)C)c2nc(Nc3cn(CCO)nc3C)ncc2c1 [I-50],> 2500 nM
8,Cc1ncc(F)cc1-c1cc(C(C)C)c2nc(Nc3cnn(CCO)c3)ncc2c1 [I-52],> 2500 nM
9,Cc1ncccc1-c1cc(C(C)C)c2nc(Nc3cnn(CCO)c3C)ncc2c1 [I-66],500 to 2500 nM
10,Cc1nn(CCO)cc1Nc1ncc2cc(-c3cccnc3)cc(C3CC3)c2n1 [I-72],100 to 500 nM
11,Cc1nn(CCO)cc1Nc1ncc2cc(-c3cc(F)cnc3C)cc(C3CC3)c2n1 [I-74],500 to 2500 nM
12,Cc1nn(CCO)cc1Nc1ncc2cc(-c3cccnc3)cc(C(F)(F)F)c2n1 [I-75],> 2500 nM
13,Cc1nn(CCO)cc1Nc1ncc2cc(-c3cccnc3C)cc(C(F)(F)F)c2n1 [I-76],> 2500 nM
14,Cc1ccnc(C)c1-c1cc(C(F)(F)F)c2nc(Nc3cn(CCO)nc3C)ncc2c1 [I-77],500 to 2500 nM
15,Cc1nn(CCO)cc1Nc1ncc2cc(-c3nccnc3F)cc(C(C)C)c2n1 [I-79],500 to 2500 nM
